Test results taken from patent US20120277184A1 (priority 2004, published 2012).
Read-outs that look alike come from different tables or passages of the source.

How the values were obtained:
ε-toxin = ε-toxin (Clostridium perfringens, UniProt Q02307)
α-HL [1] = molecular target: T1, α-HL (Staphylococcus aureus, UniProt P09616)
LeTx = LeTx (Bacillus anthracis, UniProt P13423); conditions: raw 264.7 cells
α-HL [2] = molecular target: T1, α-HL; type: biochemical; conditions: read-out: Inhibition of trans-membrane conductance IC50
[3] = rat, in vivo; cited from earlier work

ε-toxin, sequence (Q02307 46-306 limits assumed): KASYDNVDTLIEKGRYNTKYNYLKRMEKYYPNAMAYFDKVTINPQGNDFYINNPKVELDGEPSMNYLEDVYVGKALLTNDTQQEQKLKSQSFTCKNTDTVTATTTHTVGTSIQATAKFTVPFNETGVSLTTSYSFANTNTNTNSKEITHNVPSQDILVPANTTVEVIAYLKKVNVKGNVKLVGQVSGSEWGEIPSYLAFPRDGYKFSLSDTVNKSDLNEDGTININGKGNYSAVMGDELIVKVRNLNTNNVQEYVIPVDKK
T1 sequence (P09616 27-319 limits assumed): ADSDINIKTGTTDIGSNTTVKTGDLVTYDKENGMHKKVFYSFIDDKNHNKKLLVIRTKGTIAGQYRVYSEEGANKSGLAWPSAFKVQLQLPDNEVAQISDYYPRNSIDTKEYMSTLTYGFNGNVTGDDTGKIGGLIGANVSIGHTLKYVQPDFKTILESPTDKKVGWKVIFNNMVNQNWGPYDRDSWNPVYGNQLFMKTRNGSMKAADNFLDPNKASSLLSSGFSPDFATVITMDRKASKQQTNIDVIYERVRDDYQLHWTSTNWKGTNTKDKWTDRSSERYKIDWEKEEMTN
LeTx, sequence (P13423 197-764 limits assumed): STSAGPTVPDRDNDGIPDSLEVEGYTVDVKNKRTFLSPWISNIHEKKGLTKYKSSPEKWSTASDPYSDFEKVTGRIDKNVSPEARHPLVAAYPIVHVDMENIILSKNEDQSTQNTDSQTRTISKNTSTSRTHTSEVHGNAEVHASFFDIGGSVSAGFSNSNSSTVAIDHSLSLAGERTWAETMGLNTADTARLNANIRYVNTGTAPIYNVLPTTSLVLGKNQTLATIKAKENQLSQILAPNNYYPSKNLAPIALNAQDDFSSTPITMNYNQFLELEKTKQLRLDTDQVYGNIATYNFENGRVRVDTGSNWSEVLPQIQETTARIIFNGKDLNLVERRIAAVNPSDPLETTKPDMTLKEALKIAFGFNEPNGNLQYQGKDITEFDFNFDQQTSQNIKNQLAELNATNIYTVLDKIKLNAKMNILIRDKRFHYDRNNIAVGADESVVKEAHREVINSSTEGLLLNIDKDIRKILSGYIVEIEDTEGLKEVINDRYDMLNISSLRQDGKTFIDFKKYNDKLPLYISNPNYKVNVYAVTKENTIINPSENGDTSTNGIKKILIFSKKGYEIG

Compound: OC1C2OC(CNCc3ccc(Br)cc3)C(OC3OC(CNCc4ccc(Br)cc4)C(OC4OC(CNCc5ccc(Br)cc5)C(OC5OC(CNCc6ccc(Br)cc6)C(OC6OC(CNCc7ccc(Br)cc7)C(OC7OC(CNCc8ccc(Br)cc8)C(OC8OC(CNCc9ccc(Br)cc9)C(O2)C(O)C8O)C(O)C7O)C(O)C6O)C(O)C5O)C(O)C4O)C(O)C3O)C1O (stereo not shown) [Compound 5137]
- IC50 (ε-toxin): 20 ± 1 µM

Compound: CC(C)(C)OC(=O)NC(CCCN)C(=O)NCC1OC2OC3C(CNC(=O)C(CCCN)NC(=O)OC(C)(C)C)OC(OC4C(CNC(=O)C(CCCN)NC(=O)OC(C)(C)C)OC(OC5C(CNC(=O)C(CCCN)NC(=O)OC(C)(C)C)OC(OC6C(CNC(=O)C(CCCN)NC(=O)OC(C)(C)C)OC(OC7C(CNC(=O)C(CCCN)NC(=O)OC(C)(C)C)OC(OC8C(CNC(=O)C(CCCN)NC(=O)OC(C)(C)C)OC(OC9C(CNC(=O)C(CCCN)NC(=O)OC(C)(C)C)OC(OC1C(O)C2O)C(O)C9O)C(O)C8O)C(O)C7O)C(O)C6O)C(O)C5O)C(O)C4O)C(O)C3O (stereo not shown) [Compound 12]
- IC50 (α-HL [1]): > 100 µM

Compound: Cc1ccc(CNC[C@H]2O[C@@H]3O[C@H]4[C@H](O)[C@@H](O)[C@@H](O[C@H]5[C@H](O)[C@@H](O)[C@@H](O[C@H]6[C@H](O)[C@@H](O)[C@@H](O[C@H]7[C@H](O)[C@@H](O)[C@@H](O[C@H]8[C@H](O)[C@@H](O)[C@@H](O[C@H]9[C@H](O)[C@@H](O)[C@@H](O[C@H]2[C@H](O)[C@H]3O)O[C@@H]9CNCc2ccc(C)cc2)O[C@@H]8CNCc2ccc(C)cc2)O[C@@H]7CNCc2ccc(C)cc2)O[C@@H]6CNCc2ccc(C)cc2)O[C@@H]5CNCc2ccc(C)cc2)O[C@@H]4CNCc2ccc(C)cc2)cc1 [Compound 8]
- IC50 (LeTx): 0.5 ± 0.2 µM

Compound: O[C@@H]1[C@@H](O)[C@H]2O[C@H]3[C@H](O)[C@@H](O)[C@@H](O[C@H]4[C@H](O)[C@@H](O)[C@@H](O[C@H]5[C@H](O)[C@@H](O)[C@@H](O[C@H]6[C@H](O)[C@@H](O)[C@@H](O[C@H]7[C@H](O)[C@@H](O)[C@@H](O[C@H]8[C@H](O)[C@@H](O)[C@@H](O[C@@H]1[C@@H](CNCc1ccc(Br)cc1)O2)O[C@@H]8CNCc1ccc(Br)cc1)O[C@@H]7CNCc1ccc(Br)cc1)O[C@@H]6CNCc1ccc(Br)cc1)O[C@@H]5CNCc1ccc(Br)cc1)O[C@@H]4CNCc1ccc(Br)cc1)O[C@@H]3CNCc1ccc(Br)cc1 [Compound 10]
- Inhibition of α-HL hemolytic activity (in words) (α-HL [1]): did not display any activity
- IC50 (α-HL [1]; erythrocytes): > 100 µM

Compound: OC1C2OC(CNCc3ccc(Cl)cc3)C(OC3OC(CNCc4ccc(Cl)cc4)C(OC4OC(CNCc5ccc(Cl)cc5)C(OC5OC(CNCc6ccc(Cl)cc6)C(OC6OC(CNCc7ccc(Cl)cc7)C(OC7OC(CNCc8ccc(Cl)cc8)C(OC8OC(CNCc9ccc(Cl)cc9)C(O2)C(O)C8O)C(O)C7O)C(O)C6O)C(O)C5O)C(O)C4O)C(O)C3O)C1O (stereo not shown) [Compound 5130]
- IC50 (ε-toxin): 21 ± 9 µM

Compound: CC(C)(C)OC(=O)NC(CCCN)C(=O)NCC1OC2OC3C(CNC(=O)C(CCCN)NC(=O)OC(C)(C)C)OC(OC4C(CNC(=O)C(CCCN)NC(=O)OC(C)(C)C)OC(OC5C(CNC(=O)C(CCCN)NC(=O)OC(C)(C)C)OC(OC6C(CNC(=O)C(CCCN)NC(=O)OC(C)(C)C)OC(OC7C(CNC(=O)C(CCCN)NC(=O)OC(C)(C)C)OC(OC8C(CNC(=O)C(CCCN)NC(=O)OC(C)(C)C)OC(OC1C(O)C2O)C(O)C8O)C(O)C7O)C(O)C6O)C(O)C5O)C(O)C4O)C(O)C3O (stereo not shown) [Compound 11]
- IC50 (α-HL [2]): ~0.05 µM
- IC50 (α-HL [1]): 3.3 µM
- Inhibition of α-HL hemolytic activity (in words) (α-HL [1]): inhibits α-HL

Compound: Cc1ccc(CNCC2OC3OC4C(CNCc5ccc(C)cc5)OC(OC5C(CNCc6ccc(C)cc6)OC(OC6C(CNCc7ccc(C)cc7)OC(OC7C(CNCc8ccc(C)cc8)OC(OC8C(CNCc9ccc(C)cc9)OC(OC9C(CNCc%10ccc(C)cc%10)OC(OC2C(O)C3O)C(O)C9O)C(O)C8O)C(O)C7O)C(O)C6O)C(O)C5O)C(O)C4O)cc1 (stereo not shown) [Compound 5105]
- IC50 (ε-toxin): 20 ± 10 µM
- Inhibition of ε-toxin cytotoxicity / protection of MDCK cells (in words) (ε-toxin): protection

Compound: β-cyclodextrin [β-CD]
- Bioavailability [3]: 0.1-4%

Compound: O[C@@H]1[C@@H](O)[C@H]2O[C@H]3[C@H](O)[C@@H](O)[C@@H](O[C@H]4[C@H](O)[C@@H](O)[C@@H](O[C@H]5[C@H](O)[C@@H](O)[C@@H](O[C@H]6[C@H](O)[C@@H](O)[C@@H](O[C@H]7[C@H](O)[C@@H](O)[C@@H](O[C@H]8[C@H](O)[C@@H](O)[C@@H](O[C@@H]1[C@@H](CNCc1ccc(Cl)cc1)O2)O[C@@H]8CNCc1ccc(Cl)cc1)O[C@@H]7CNCc1ccc(Cl)cc1)O[C@@H]6CNCc1ccc(Cl)cc1)O[C@@H]5CNCc1ccc(Cl)cc1)O[C@@H]4CNCc1ccc(Cl)cc1)O[C@@H]3CNCc1ccc(Cl)cc1 [Compound 9]
- IC50 (LeTx): 5.4 ± 0.8 µM
